Experiments:
BACE1 = BACE1 (Homo sapiens, UniProt P56817); test: In vitro enzymatic BACE FRET assay; assay type: biochemical
Experimental: In Vitro Enzymatic BACE FRET (fluorescence resonance energy transfer) Assay (Enzyme Assay data in the Example Table I)
The assay buffer used in this screen is 0.05 M acetate, pH 4.2, 10% DMSO final, 100 uM genapol (which is a nonionic detergent, below its Critical Micelle Concentration). […] This assay is effectively started by the addition of FRET substrate (50 nM) and the combination is incubated for one hour. The FRET assay is terminated with by addition of Tris buffer, which raises the pH to neutrality, and the fluorescence is determined. The FRET substrate is a peptide with commercially available fluorophore and quencher, on opposite sides of the BACE cleavage site. Proteolytic cleavage of the FRET substrate releases quenching of fluorescence (excitation […] and […]).

[1] = system: Aβ40 in conditioned medium of cells expressing amyloid precursor protein; test: In vitro BACE cell-based assay (HEK cell assay, Aβ40 sandwich ELISA); settings: Homo sapiens, HEK293; average IC50; Aβ40 after 24 h incubation

BACE1, sequence (P56817 46-501): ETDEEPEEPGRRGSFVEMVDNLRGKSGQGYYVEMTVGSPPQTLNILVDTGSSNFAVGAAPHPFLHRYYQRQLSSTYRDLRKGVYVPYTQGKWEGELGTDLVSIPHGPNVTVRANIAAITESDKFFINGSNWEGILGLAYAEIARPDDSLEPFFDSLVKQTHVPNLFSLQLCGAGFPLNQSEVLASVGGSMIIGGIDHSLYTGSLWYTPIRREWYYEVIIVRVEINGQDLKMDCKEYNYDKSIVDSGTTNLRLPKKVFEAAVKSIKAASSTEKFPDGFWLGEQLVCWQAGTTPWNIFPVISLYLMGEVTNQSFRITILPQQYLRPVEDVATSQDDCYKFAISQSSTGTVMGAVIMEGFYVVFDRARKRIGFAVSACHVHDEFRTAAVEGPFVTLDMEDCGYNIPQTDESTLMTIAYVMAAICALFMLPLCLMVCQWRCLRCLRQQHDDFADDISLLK

Row | Compound | IC50 (BACE1) [nM] | IC50 [1] [nM]
1 | NC1=N[C@]2(c3cc(Br)ccc3Oc3c2cc(Cl)nc3F)c2cccnc21 (single isomer, unassigned) [Example 17c-2] | 3440 | > 10000
2 | NC1=NC2(c3cc(-c4cccnc4F)ccc3Oc3c2cc(Cl)nc3F)c2ccccc21 (centres unmarked) [Example 5d, 3-chloro-1-fluoro-7-(2-fluoropyridin-3-yl)spiro[chromeno[2,3-c]pyridine-5,1′-isoindol]-3′-amine] | 6 | 224
3 | NC1=N[C@]2(c3cc(-c4cccnc4F)ccc3Oc3c2cc(C2=CCCOC2)nc3F)c2cnccc21 [Example 14-E, (S)-3-(5,6-dihydro-2H-pyran-3-yl)-1-fluoro-7-(2-fluoropyridin-3-yl)spiro[chromeno[2,3-c]pyridine-5,3′-pyrrolo[3,4-c]pyridin]-1′-amine] | 0.5 | 2
4 | NC1=NC2(c3cc(Br)ccc3Oc3c2cc(Cl)nc3F)c2cnccc21 (centres unmarked) [Example 14c, 7-bromo-3-chloro-1-fluorospiro[chromeno[2,3-c]pyridine-5,3′-pyrrolo[3,4-c]pyridin]-1′-amine] | 4580 | > 10000
5 | NC1=NC2(c3cc(-c4cccnc4F)ccc3Oc3c2cc(Cl)nc3F)c2cnccc21 (centres unmarked) [Example 14d, 3-chloro-1-fluoro-7-(2-fluoropyridin-3-yl)spiro[chromeno[2,3-c]pyridine-5,3′-pyrrolo[3,4-c]pyridin]-1′-amine] | 3.7 | 771
6 | NC1=N[C@@]2(c3cc(-c4cccnc4F)ccc3Oc3c2cc(Cl)nc3F)c2cnccc21 [Example 14d-1, (R)-3-chloro-1-fluoro-7-(2-fluoropyridin-3-yl)spiro[chromeno[2,3-c]pyridine-5,3′-pyrrolo[3,4-c]pyridin]-1′-amine] | 6570 | > 10000
7 | NC1=N[C@]2(c3cc(-c4cccnc4F)ccc3Oc3c2cc(Cl)nc3F)c2cnccc21 [Example 14d-2, (S)-3-chloro-1-fluoro-7-(2-fluoropyridin-3-yl)spiro[chromeno[2,3-c]pyridine-5,3′-pyrrolo[3,4-c]pyridin]-1′-amine] | 2.5 | 35.5
8 | NC1=NC2(c3cc(Br)ccc3Oc3cnc(Cl)cc32)c2ccncc21 (centres unmarked) [Example 16, 7-bromo-3-chlorospiro[chromeno[2,3-c]pyridine-5,1′-pyrrolo[3,4-c]pyridin]-3′-amine] | 9090 | > 10000
9 | NC1=N[C@]2(c3cc(-c4cccnc4F)ccc3Oc3c2cc(C2=CCCOC2)nc3F)c2cccnc21 [Example 17-F, (S)-3-(5,6-dihydro-2H-pyran-3-yl)-1-fluoro-7-(2-fluoropyridin-3-yl)spiro[chromeno[2,3-c]pyridine-5,5′-pyrrolo[3,4-b]pyridin]-7′-amine] | 0.7 | 3
10 | NC1=N[C@]2(c3cc(-c4cccnc4F)ccc3Oc3c2cc(N2CCOCC2)nc3F)c2cccnc21 [Example 17-G, (S)-1-fluoro-7-(2-fluoropyridin-3-yl)-3-morpholinospiro[chromeno[2,3-c]pyridine-5,5′-pyrrolo[3,4-b]pyridin]-7′-amine] | 1 | 2
11 | NC1=NC2(c3cc(Br)ccc3Oc3c2cc(Cl)nc3F)c2cccnc21 (centres unmarked) [Example 17c, 7-bromo-3-chloro-1-fluorospiro[chromeno[2,3-c]pyridine-5,5′-pyrrolo[3,4-b]pyridin]-7′-amine] | > 10000 | > 10000
12 | NC1=NC2(c3cc(-c4cccnc4F)ccc3Oc3c2cc(Cl)nc3F)c2cccnc21 (centres unmarked) [Example 17d, 3-chloro-1-fluoro-7-(2-fluoropyridin-3-yl)spiro[chromeno[2,3-c]pyridine-5,5′-pyrrolo[3,4-b]pyridin]-7′-amine 2,2,2-trifluoroacetate] | 88 | 4370
13 | NC1=N[C@@]2(c3cc(-c4cccnc4F)ccc3Oc3c2cc(Cl)nc3F)c2cccnc21 [Example 17d-1, (R)-3-chloro-1-fluoro-7-(2-fluoropyridin-3-yl)spiro[chromeno[2,3-c]pyridine-5,5′-pyrrolo[3,4-b]pyridin]-7′-amine] | > 10000 | > 10000

Reference: US8921363B2, “Derivatives of 1 H-isoindol-3-amine, 1 H-iso-aza-indol-3amine, 3,4-dihydroisoquinolin-1-amine, and 1,4-dihydroisoquinolin-3-amine as beta-secretase inhibitors” (Amgen Inc., priority 2010, dated 2014)
